Experimental data: patent US11708391B2, “Rapaglutins, novel inhibitors of GLUT and use thereof” (The Johns Hopkins University, priority 2016, dated 2023)
Where two headings read alike, the source gives them in different places.

Legend:
glucose transporters [1] = conditions: CHO-K1; read-out: IC50 (cell line); cited from earlier work
glucose transporters [2] = conditions: LNCaP; read-out: IC50 (cell line); cited from earlier work
glucose transporters [3] = conditions: DU145; read-out: IC50 (cell line); cited from earlier work
glucose transporters [4] = conditions: HL-60; read-out: IC50 (cell line); cited from earlier work
glucose transporters [5] = conditions: SW620; read-out: IC50 (cell line); cited from earlier work
glucose transporters [6] = experiment: 2-deoxy-D-[3H] glucose uptake in A549 cells; type: cell-based, human; conditions: A549 cells
Procedure: FIGS. 2A-2D. Inhibition of Glucose Transport by A18 and E11. (a) Inhibition of 3-O-methyl¬D-[3H] glucose uptake in A549 cells by A18. (b) Inhibition of 3-O-methyl-D-[3H] glucose uptake in A549 cells by E11. (c) Inhibition of 2-deoxy-D-[3H] glucose uptake in A549 […] cells by A18. (d) Inhibition of 2-deoxy-D-[3H] glucose uptake in A549 cells by E11.
FIGS. 16A-16B. Inhibition of Glucose Transport by A18 and E11. Cytochalasin B (10 μM), A18 (3 μM), E11 (3 μM) and DMSO control were used to treated A549 cells for 10 min (a) or 1 min (b), then glucose uptake in the treated cells was measured at 1, 3, 10 and 30 min after the addition of 2-dexoy-D-[^3H] glucose.
Direct action on glucose transporters was measured by monitoring uptake of 3H-labeled 3-O-methylglucose, which is transported by glucose transporters but not metabolized further, allowing the assessment of initial rate of glucose uptake. […] Initial uptake can also be assessed by measuring the uptake of 3H-labeled 2-deoxy-D-glucose, which gets into the cell through glucose transporters and is phosphorylated by hexokinase but cannot be metabolized further due to the lack of oxygen at the second position.

glucose transporters [7] = conditions: RCC4; read-out: IC50 (cell line); cited from earlier work
glucose transporters [8] = conditions: A549; read-out: IC50 (cell line); cited from earlier work

In the case of `CCOC(=O)[C@@]12CCCCC/C=C\1N(C(=O)c1cccc3ccccc13)C(=O)[C@H]2CC(=O)N1CCN(C(=O)c2ccco2)CC1` [Compound 11], the IC50 (glucose transporters [1]) is listed as 2000 nM.
For `CC(CN1C(=O)S/C(=C/c2ccc(O)c(C(F)(F)F)c2)C1=O)(CC(F)(F)F)CC(F)(F)F` [Cpd30], the IC50 (glucose transporters [2]) is listed as 2000 nM.
For `CC(=O)CC(=O)Nc1ccc(Cl)c(C(F)(F)F)c1` [Fasentin], the IC50 (glucose transporters [3]) is given as ~80000 nM.
In the case of `O=c1c(-c2ccc(O)cc2)coc2cc(O)cc(O)c12` [Genistein], the IC50 (glucose transporters [4]) is given as ~12000 nM.
For `O=C(CCc1ccc(O)cc1)c1c(O)cc(O)cc1O` [Phloretin], the IC50 (glucose transporters [5]) is given as > 10000 nM.
For `CCC(C)(C)C(=O)C(=O)N1CCCC[C@H]1C(=O)O[C@H](CCc1ccc(OC)c(OC)c1)c1cccc(OCC(=O)O)c1` [SLF, reference compound], the “antagonism of inhibitory effects of A18 or E11 on 2-deoxy-D-glucose uptake by FKBP ligands” value (glucose transporters [6]) was “significantly impaired the inhibitory activity of E11”.
For `CC(C)(C)c1ccc(S(=O)(=O)NCc2ccc(C(=O)Nc3cccnc3)cc2)cc1` [STF-31], the IC50 (glucose transporters [7]) is given as ~1200 nM.
For `O=C(Oc1cccc(F)c1OC(=O)c1cccc(O)c1)c1cccc(O)c1` [WZB117], the IC50 (glucose transporters [8]) is given as ~500 nM.
